In patent publication US8859590B2, “Inhibitors of BACE1 and methods for treating Alzheimer's disease” (Purdue Research Foundation, priority 2008, dated 2014):

The molecules below were run against BACE1 (Memapsin 2) (Homo sapiens, UniProt P56817) (assay: Inhibition of BACE1 (memapsin 2) catalytic activity, fluorogenic substrate FS-2). Settings: inhibition constants of BACE1; pH 4, 37° C.
Format: biochemical
Protocol: Inhibition of BACE1 (Memapsin 2). Potency of compounds are determined by measurement of their inhibition of memapsin 2 catalytic activity toward a fluorescent substrate. […] Briefly, assays are performed at pH 4, 37° C., by pre-incubation of memapsin 2 enzyme with compound for 20 minutes. Activity measure is initiated by addition of a fluorogenic substrate FS-2 (Bachem Americas, Torrance, Calif.). Fluorescent signal increase over time is measured as a rate of hydrolysis of the peptide substrate. […]

BACE1 (Memapsin 2), sequence (P56817 46-501): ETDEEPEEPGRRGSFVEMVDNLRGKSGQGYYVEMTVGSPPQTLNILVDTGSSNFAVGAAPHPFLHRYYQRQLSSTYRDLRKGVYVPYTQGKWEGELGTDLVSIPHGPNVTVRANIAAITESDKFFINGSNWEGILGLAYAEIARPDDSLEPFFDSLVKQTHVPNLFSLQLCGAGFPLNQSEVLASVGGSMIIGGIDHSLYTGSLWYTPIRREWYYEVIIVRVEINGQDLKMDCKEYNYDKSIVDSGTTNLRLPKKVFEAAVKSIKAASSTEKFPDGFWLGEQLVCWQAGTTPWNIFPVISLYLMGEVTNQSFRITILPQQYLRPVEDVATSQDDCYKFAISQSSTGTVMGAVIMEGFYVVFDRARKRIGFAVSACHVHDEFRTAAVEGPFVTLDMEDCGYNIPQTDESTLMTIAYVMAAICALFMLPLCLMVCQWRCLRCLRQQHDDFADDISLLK

Q: Which Ki does the source give for C[C@@H](NC(=O)c1cc(C(=O)N[C@H](CN[C@H](CO)Cc2ccccc2)Cc2ccccc2)cc(N(C)S(C)(=O)=O)c1)c1ccccc1 [Example 0397] here?
A: The Ki was < 1 mM.

Q: How did the Ki turn out when C[C@@H](NC(=O)c1cc(C(=O)N[C@H](CN[C@@H]2c3ccccc3C[C@@H]2O)Cc2ccccc2)cc(N(C)S(C)(=O)=O)c1)c1ccccc1 [Example 0407] was run?
A: The Ki was < 1 mM.

Q: With COC(=O)[C@H](NC[C@H](Cc1ccccc1)NC(=O)c1cc(C(=O)N[C@H](C)c2ccccc2)cc(N(C)S(C)(=O)=O)c1)[C@@H](C)O [Example 0417] as the molecule, how does the Ki read?
A: The Ki was < 1 mM.

Q: With C[C@@H](NC(=O)c1cc(C(=O)N[C@H](CN[C@H]2c3ccccc3C[C@H]2O)Cc2ccccc2)cc(N(C)S(C)(=O)=O)c1)c1ccccc1 [Example 0427] as the molecule, how does the Ki read?
A: Its Ki is < 1 mM.

Q: With COc1cccc([C@@H](NC[C@H](Cc2ccccc2)NC(=O)c2cccc(C(=O)N(C)Cc3nc(C)cs3)c2)[C@H](O)Cc2ccccc2)c1 [Example 0439] as the molecule, how does the Ki read?
A: Its Ki is > 1 mM.

Q: For COc1cccc([C@H](NC[C@H](Cc2ccccc2)NC(=O)c2cccc(C(=O)N(C)Cc3nc(C)cs3)c2)[C@H](O)Cc2ccccc2)c1 [Example 0449], which Ki is on record?
A: The Ki was > 1 mM.

Q: Which Ki does the source give for Cc1csc(CN(C)C(=O)c2cccc(C(=O)N[C@H](CN[C@H](C(=O)NCC(C)C)[C@H](C)O)Cc3ccccc3)c2)n1 [Example 0637] here?
A: Its Ki is < 1 mM.

Q: How did the Ki turn out when Cc1csc(CN(C)C(=O)c2cccc(C(=O)N[C@H](CN[C@@H]3c4ccccc4C[C@@H]3O)Cc3ccccc3)c2)n1 [Example 0647] was run?
A: Its Ki is < 1 mM.

Q: With COC(=O)[C@H](NC[C@H](Cc1ccccc1)NC(=O)c1cccc(C(=O)N(C)Cc2nc(C)cs2)c1)[C@@H](C)O [Example 0667] as the molecule, how does the Ki read?
A: Its Ki is > 1 mM.

Q: CC(C)CNC[C@@H](NC[C@H](Cc1ccccc1)NC(=O)c1cc(C(=O)N[C@H](C)c2ccccc2)cc(N(C)S(C)(=O)=O)c1)[C@H](C)O [Example 1439] was tested. Which Ki did it give?
A: Its Ki is < 0.0001 mM.

Q: Which Ki does the source give for CC(C)CNC[C@@H](NC[C@H](Cc1ccccc1)NC(=O)c1cc(C(=O)N[C@H](C)c2ccccc2)cc(N(C)S(C)(=O)=O)c1)[C@@H](O)CC(C)C [Example 1479] here?
A: Its Ki is < 0.0001 mM.
